From article PMC9933482 (ACS Omega, 2023)
In brackets after ≈: the same amount, converted by molar mass. Entries after “also recorded” stand apart in the source; their conditions may differ.

Columns and labels:
[1] = target: recombinant human carbonic anhydrase XII (hCAXII) (Homo sapiens, UniProt O43570); assay: hCAXII enzyme inhibition assay; assay type: biochemical
[2] = tested on: human lung fibroblast cell line WI38; assay: MTT cell viability, normal lung fibroblast WI38; assay type: cell-based; conditions: WI-38, read-out: IC50 in μg/mL WI38
HePG-2 cell line = assay: MTT cytotoxicity assay, HePG-2; assay type: cell-based, human; conditions: for IC50: Homo sapiens, HepG2, 24 h, read-out: IC50 in μg/mL HePG-2, MTT, 24 h treatment
[3] = target: human carbonic anhydrase IX (hCAIX) (Homo sapiens, UniProt Q16790); assay: biochemical
HePG-2 cells [4] = assay: Annexin V-FITC/PI apoptosis and necrosis assay by flow cytometry; assay type: cell-based, human; conditions: for increase of early apoptotic ratio compared to control cells / increase of late apoptotic % compared to control cells / necrosis compared to the control cell HePG-2: HePG-2; for apoptosis total, cell content % / apoptosis early, cell content % / necrosis, cell content % / apoptosis late, cell content %: HePG-2, compound at IC50; for apoptosis early, cell content %: lower right quadrant; for necrosis, cell content %: upper left quadrant; for apoptosis late, cell content %: upper right quadrant
caspase-9 = assay: Caspase 9 assay; assay type: cell-based, human; conditions: for increase in level of active caspase-9 compared to control: HePG-2; for Casp9 OD: HepG2 cells treated with compound
MCF-7 cell line = assay: MTT cytotoxicity assay, MCF-7; assay type: cell-based, human; conditions: for IC50: Homo sapiens, MCF7, 24 h, read-out: IC50 in μg/mL MCF-7, MTT, 24 h treatment
HePG-2 cells [5] = assay: Cell cycle analysis by DNA flow cytometry; assay type: cell-based, human; conditions: for %G0–G1 (DNA content) / %G2/M (DNA content) / %S (DNA content): HePG-2, compound at IC50, 24 h

Sequence of recombinant human carbonic anhydrase XII (hCAXII) (O43570 25-291): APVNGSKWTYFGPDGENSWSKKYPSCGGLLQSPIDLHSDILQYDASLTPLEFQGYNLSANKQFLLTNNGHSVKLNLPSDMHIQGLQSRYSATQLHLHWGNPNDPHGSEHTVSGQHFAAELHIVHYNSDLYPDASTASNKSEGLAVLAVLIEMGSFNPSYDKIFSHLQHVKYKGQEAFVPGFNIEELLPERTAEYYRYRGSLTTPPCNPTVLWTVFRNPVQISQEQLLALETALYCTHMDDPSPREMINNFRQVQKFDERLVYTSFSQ

Row | Compound | IC50 [1] | IC50 [2] | IC50 (HePG-2 cell line) | IC50 [3] | increase of early apoptotic ratio compared to control cells (HePG-2 cells [4]) | increase of late apoptotic % compared to control cells (HePG-2 cells [4]) | necrosis compared to the control cell HePG-2 (HePG-2 cells [4]) | apoptosis total, cell content % (HePG-2 cells [4]) | apoptosis early, cell content % (HePG-2 cells [4]) | necrosis, cell content % (HePG-2 cells [4]) | apoptosis late, cell content % (HePG-2 cells [4]) | increase in level of active caspase-9 compared to control (caspase-9) | Casp9 OD (caspase-9) | IC50 (MCF-7 cell line) | cell cycle comment (phase of arrest) (HePG-2 cells [5]; HePG-2) | %G0–G1 (DNA content) (HePG-2 cells [5]) | %G2/M (DNA content) (HePG-2 cells [5]) | %S (DNA content) (HePG-2 cells [5]) | anticancer/cytotoxic activity in words, HePG-2 (HePG-2 cell line) | anticancer/cytotoxic activity in words, MCF-7 (MCF-7 cell line) | further results
1 | CCOC(=O)C1CSc2[nH]c(=O)sc2C1c1cn(-c2ccccc2)nc1-c1ccc(Cl)cc1 (stereo not shown) [compound 7i, Ethyl 7-(3-(4-Chlorophenyl)-1-phenyl-1H-pyrazol-4-yl)-2-oxo-3,5,6,7-tetra-hydro-2H-thiopyrano[2,3-d]thiazole-6-carboxylate] | 123 ± 7 nM | 19.5 ± 1.6 µg/mL (≈ 39.1 µM) | 7.83 ± 2.1 µg/mL (≈ 15.7 µM) | 287 ± 14 nM | 52 fold | ~45 fold | ~3 fold | 41.13% | 28.71% | 2.91% | 9.51% | 3 fold | 0.609 | 10.1 ± 1.5 µg/mL (≈ 20.2 µM) | arrested in phase G2/M; also recorded: cell growth arrest@G2/M | 39.56% | 27.93% | 32.51% | – | – | caspase-9 protein level vs untreated cells, Image J analysis (caspase-9; after normalization to β-actin): 2.98 fold; increase of cell ratio in phase G2/M compared to the control (HePG-2 cells [5]; HePG-2): 1.6 fold
2 | N#CC1CSc2[nH]c(=O)sc2C1c1cn(-c2ccccc2)nc1-c1ccc(Br)cc1 (stereo not shown) [compound 7e, 7-(3-(4-Bromophenyl)-1-phenyl-1H-pyrazol-4-yl)-2-oxo-3,5,6,7-tetrahydro-2H-thiopyrano-[2,3-d]thiazole-6-carbonitrile] | 202 ± 11 nM | 27.1 ± 3.3 µg/mL (≈ 54.6 µM) | 9.11 ± 3.2 µg/mL (≈ 18.4 µM) | 67 ± 3 nM | 21 fold | approximately 101 fold | ~3 fold | 36.28% | 11.91% | 3.13% | 21.24% | ~4 fold | 0.813 | 10.1 ± 2.1 µg/mL (≈ 20.4 µM) | arrested in phase S; also recorded: cell growth arrest@S | 41.39% | 14.36% | 44.25% | – | – | increase of cell ratio in phase S compared to the control (HePG-2 cells [5]; HePG-2): 1.2 fold
3 | O=C1NC(=S)C(=Cc2cn(-c3ccccc3)nc2-c2ccc(Br)cc2)S1 [compound 3e, 5-[(3-(4-Bromophenyl)-1-phenyl-1H-pyrazol-4-yl)methylene]-4-thioxo-2-thiazolidinone] | 556 ± 16 nM | 41.5 ± 2.9 µg/mL (≈ 93.8 µM) | 7.83 ± 1.5 µg/mL (≈ 17.7 µM) | 349 ± 11 nM | – | – | – | – | – | – | – | – | – | 11.2 ± 1.5 µg/mL (≈ 25.2 µM) | – | – | – | – | most potent cytotoxic agent in this series; also recorded: strong cytotoxic activity | most potent cytotoxic agent in this series; also recorded: strong anticancer activity | IC50 in μg/mL HePG-2 (HePG-2 cell line; MTT, 24 h treatment): 10.66 ± 1.0 µg/mL (≈ 24.1 µM)
4 | Cc1ccc(-c2nn(-c3ccccc3)cc2C2c3sc(=O)[nH]c3SC3C(=O)N(c4ccccc4)C(=O)C32)cc1 (stereo not shown) [compound 5d, 8-(3-(4-Methylphenyl)-1-phenyl-1H-pyrazol-4-yl)-6-phenyl-7a,8-dihydro-pyrrolo[3′,4′:5,6]-thiopyrano[2,3-d]thiazole-2,5,7(3H,4aH,6H)-trione] | 604 ± 33 nM | 49.9 ± 3.4 µg/mL (≈ 90.5 µM) | 21.3 ± 1.8 µg/mL (≈ 38.7 µM) | 336 ± 16 nM | – | – | – | – | – | – | – | – | – | 25.4 ± 2.1 µg/mL (≈ 46.1 µM) | – | – | – | – | good cytotoxic effect | good cytotoxic effect | IC50 in μg/mL MCF-7 (MCF-7 cell line; MTT, 24 h treatment): 25.95 ± 2.8 µg/mL (≈ 47.1 µM)
